Measured values reported in US8283382B2, “Vitamin K for prevention and treatment of skin rash secondary to anti-EGFR therapy” (Albert Einstein College of Medicine of Yeshiva University, priority 2005, dated 2012).
Entries after “also recorded” stand apart in the source; their conditions may differ.

Assays:
[1] = Matschiner et al., 1972; cited from earlier work
EGFR [2] = target: T1, EGFR (Homo sapiens, UniProt P00533); assay: Western blot of phosphorylated EGFR in A431 / HN5 cells; type: cell-based; conditions: for concentration at which activation of EGFR was seen / activation (phosphorylation) of EGFR: 2 hours exposure; for activation (phosphorylation) of EGFR: concentrations up to 1000 μM; for concentration at which activation was seen, converted to mass concentration: K3: EGFR, Akt and Stat-3, K1: EGFR and Akt
T1 construct: Two human cell lines that overexpress non-mutated EGFR were used; endogenous in cells; host or cells: A431 vulvar carcinoma; HN5 head and neck carcinoma
T1 sequence (P00533 25-1210): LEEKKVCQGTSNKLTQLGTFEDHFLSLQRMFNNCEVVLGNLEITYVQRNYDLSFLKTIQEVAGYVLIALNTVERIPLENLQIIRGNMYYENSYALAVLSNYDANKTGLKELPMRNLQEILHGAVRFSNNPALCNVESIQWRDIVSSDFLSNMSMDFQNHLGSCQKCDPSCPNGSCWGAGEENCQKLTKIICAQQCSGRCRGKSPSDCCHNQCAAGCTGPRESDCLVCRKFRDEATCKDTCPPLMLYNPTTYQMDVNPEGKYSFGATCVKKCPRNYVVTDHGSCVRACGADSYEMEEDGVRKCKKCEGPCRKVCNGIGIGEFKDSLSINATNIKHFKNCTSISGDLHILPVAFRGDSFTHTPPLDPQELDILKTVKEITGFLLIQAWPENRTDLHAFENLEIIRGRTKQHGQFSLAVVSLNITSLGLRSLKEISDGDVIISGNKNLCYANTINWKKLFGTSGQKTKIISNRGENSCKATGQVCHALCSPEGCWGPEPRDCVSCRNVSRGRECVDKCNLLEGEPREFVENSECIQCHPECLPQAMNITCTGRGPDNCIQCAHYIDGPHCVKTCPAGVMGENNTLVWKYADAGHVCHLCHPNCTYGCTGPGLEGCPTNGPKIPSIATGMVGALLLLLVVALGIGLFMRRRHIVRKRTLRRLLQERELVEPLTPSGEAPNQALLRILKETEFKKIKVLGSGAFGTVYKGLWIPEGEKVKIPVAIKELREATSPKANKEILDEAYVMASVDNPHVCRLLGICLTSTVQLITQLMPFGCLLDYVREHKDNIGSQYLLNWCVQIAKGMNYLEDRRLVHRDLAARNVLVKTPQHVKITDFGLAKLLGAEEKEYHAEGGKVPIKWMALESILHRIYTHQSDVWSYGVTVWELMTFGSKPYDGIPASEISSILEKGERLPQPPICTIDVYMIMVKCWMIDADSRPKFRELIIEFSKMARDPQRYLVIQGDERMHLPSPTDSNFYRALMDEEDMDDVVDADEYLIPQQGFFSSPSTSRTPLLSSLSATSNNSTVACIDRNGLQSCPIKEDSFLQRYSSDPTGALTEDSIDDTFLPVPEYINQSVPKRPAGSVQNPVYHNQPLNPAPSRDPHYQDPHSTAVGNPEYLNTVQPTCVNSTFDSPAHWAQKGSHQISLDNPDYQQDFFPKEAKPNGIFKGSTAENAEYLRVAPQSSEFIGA
Method: FIG. 1A-1C. Effects of Vitamins K1, K2 and K3 (VK1, VK2, VK3) on the phosphorylation of EGFR (A), AKT (B) and Stat-3 (C) in human A431 vulvar carcinoma cells. […] Cells were exposed to the indicated concentrations of VK1, VK2 and VK3 for 2 hours. Following exposure, cells were washed twice with cold phosphate buffered saline (PBS) solution, and lysed with 50 μl of lysis buffer. Equal amounts of lysate (30 μg of protein) were subjected to a 7.5% or a 12% SDS-PAGE. EGFR, phos-EGFR, AKT, phos-AKT, Stat-3, and phos-Stat-3 were detected by immunoblotting analysis using corresponding antibodies.
FIG. 2. […] After exposure, cells were washed twice with cold PBS solution, and lysed with 50 μl of lysis buffer. Equal amounts of lyaste (30 μg of protein) were subjected to a 7.5% SDS-PAGE. EGFR and phosphorylated EGFR were detected by immunoblotting analysis using corresponding antibodies.
FIG. 4A-4B. […] Cells were exposed to 0.1 mM VK3 for 1 hour. Following exposure, cells were washed three times with cold medium and then reincubated in VK3-free fresh medium with 10% fetal bovine serum for the indicated times. Cells were harvested and lysed with lysis buffer. Equal amounts of cell lysate were subjected on 7.5% SDS-PAGE (A). The total EGFR and phosphorylated EGFR (p-EGFR) were detected by immunoblot analysis using corresponding antibodies. Control (Con) means cells were not exposed to VK3. The relative p-EGFR was expressed as the intensity of p-EGFR bands in each time points measured by a laser densitometry compared with that in control as one (B).
(§1) Two human cell lines that overexpress non-mutated EGFR were used: A431 vulvar carcinoma and HN5 head and neck carcinoma. Cells were exposed to different concentrations of different vitamin K analogs in the presence of one of three EGFR inhibitors: the anti-EGFR monoclonal antibody cetuximab (Erbitux®) and the EGFR tyrosine kinase inhibitors (TKIs) erlotinib (Tarceva®) and gefitinib (Iressa®). Cytotoxicity was assessed by cell counting. Cells were lysed and the effects of different vitamin K analogs on activation of EGFR, the kinase Akt, and Signal Transducer and Activator of Transcription-3 (STAT-3) were assessed by western blot analysis using antibodies for the phosphorylated (activated) forms of EGFR, Akt and Stat-3. […] Vitamins K1, K2, and K3 were purchased from Sigma-Aldrich (St Louis, Mo.). Activation of EGFR, Akt and Stat-3 were assessed in the presence and absence of anti-EGFR treatments of the cells. Activation of EGFR by vitamin K analog was also assessed using mouse skin, which was homogenized and lysed after treatment with the vitamin K analog. Phosphatase activity was determined using pNPP (4-nitrophenyl phosphate disodium) as a substrate.

Akt = assay: Western blot of phosphorylated Akt in A431 / HN5 cells; type: cell-based, human; conditions: for concentration at which activation of Akt was seen / activation (phosphorylation) of Akt: A431 cells, 2 hours exposure; for activation (phosphorylation) of Akt: concentrations up to 1000 μM
Method: (§2) FIG. 1A-1C. Effects of Vitamins K1, K2 and K3 (VK1, VK2, VK3) on the phosphorylation of EGFR (A), AKT (B) and Stat-3 (C) in human A431 vulvar carcinoma cells. A431 cells (1×10^6 cells/well) were plated in a 6-well plate, and incubated in RPMI-1640 medium with 10% serum overnight. Cells were exposed to the indicated concentrations of VK1, VK2 and VK3 for 2 hours. Following exposure, cells were washed twice with cold phosphate buffered saline (PBS) solution, and lysed with 50 μl of lysis buffer. Equal amounts of lysate (30 μg of protein) were subjected to a 7.5% or a 12% SDS-PAGE. EGFR, phos-EGFR, AKT, phos-AKT, Stat-3, and phos-Stat-3 were detected by immunoblotting analysis using corresponding antibodies. Vitamin K3 stimulated EGFR, Akt and Stat-3.
(§3) Two human cell lines that overexpress non-mutated EGFR were used: A431 vulvar carcinoma and HN5 head and neck carcinoma. Cells were exposed to different concentrations of different vitamin K analogs in the presence of one of three EGFR inhibitors: the anti-EGFR monoclonal antibody cetuximab (Erbitux®) and the EGFR tyrosine kinase inhibitors (TKIs) erlotinib (Tarceva®) and gefitinib (Iressa®). Cytotoxicity was assessed by cell counting. Cells were lysed and the effects of different vitamin K analogs on activation of EGFR, the kinase Akt, and Signal Transducer and Activator of Transcription-3 (STAT-3) were assessed by western blot analysis using antibodies for the phosphorylated (activated) forms of EGFR, Akt and Stat-3. Polyclonal antibodies of anti-EGFR, anti-phos-EGFR (Tyr1068), anti-AKT, anti-phos-AKT (Ser473), anti-Stat-3, and anti-phos-Stat-3 (Tyr-705) were purchased from Cell Signaling (Beverly, Mass.). Vitamins K1, K2, and K3 were purchased from Sigma-Aldrich (St Louis, Mo.). Activation of EGFR, Akt and Stat-3 were assessed in the presence and absence of anti-EGFR treatments of the cells. Activation of EGFR by vitamin K analog was also assessed using mouse skin, which was homogenized and lysed after treatment with the vitamin K analog. Phosphatase activity was determined using pNPP (4-nitrophenyl phosphate disodium) as a substrate.

Stat-3 = assay: Western blot of phosphorylated Stat-3 in A431 / HN5 cells; type: cell-based, human; conditions: for activation (phosphorylation) of Stat-3: concentrations up to 1000 μM
Method: as §2, §3

[3] = tested on: A431 vulvar carcinoma cells; assay: Erlotinib-induced cell growth inhibition / cytotoxicity by cell counting; type: cell-based, human
Method: as §1

phosphatase activity = assay: Phosphatase activity in A431 cell extracts with pNPP substrate; type: cell-based, human
Method: FIG. 5. […] A431 cells were exposed to 0.1 mM VK3 for 1 hour. After exposure, cells were washed three times with cold medium and then reincubated in VK3-free medium with 10% fetal bovine serum for the indicated time. Cells were harvested and cell extracts were prepared for the assay of phosphatase activity using pNPP (4-nitrophenyl phosphate disodium) as a substrate. Control (Con) means the phosphatase activity in cells without exposure to VK3. The relative phosphatase activity was expressed as compared with that in control as one. VK3-induced phosphatase inhibition is reversible following removal of VK3.
as §1

[4] = cited from earlier work
EGFR [5] = target: EGFR (Mus musculus, UniProt Q01279); assay: EGFR phosphorylation in mouse skin tissue (immunoblot)
EGFR (Mus musculus, UniProt Q01279), sequence (Q01279 25-1210): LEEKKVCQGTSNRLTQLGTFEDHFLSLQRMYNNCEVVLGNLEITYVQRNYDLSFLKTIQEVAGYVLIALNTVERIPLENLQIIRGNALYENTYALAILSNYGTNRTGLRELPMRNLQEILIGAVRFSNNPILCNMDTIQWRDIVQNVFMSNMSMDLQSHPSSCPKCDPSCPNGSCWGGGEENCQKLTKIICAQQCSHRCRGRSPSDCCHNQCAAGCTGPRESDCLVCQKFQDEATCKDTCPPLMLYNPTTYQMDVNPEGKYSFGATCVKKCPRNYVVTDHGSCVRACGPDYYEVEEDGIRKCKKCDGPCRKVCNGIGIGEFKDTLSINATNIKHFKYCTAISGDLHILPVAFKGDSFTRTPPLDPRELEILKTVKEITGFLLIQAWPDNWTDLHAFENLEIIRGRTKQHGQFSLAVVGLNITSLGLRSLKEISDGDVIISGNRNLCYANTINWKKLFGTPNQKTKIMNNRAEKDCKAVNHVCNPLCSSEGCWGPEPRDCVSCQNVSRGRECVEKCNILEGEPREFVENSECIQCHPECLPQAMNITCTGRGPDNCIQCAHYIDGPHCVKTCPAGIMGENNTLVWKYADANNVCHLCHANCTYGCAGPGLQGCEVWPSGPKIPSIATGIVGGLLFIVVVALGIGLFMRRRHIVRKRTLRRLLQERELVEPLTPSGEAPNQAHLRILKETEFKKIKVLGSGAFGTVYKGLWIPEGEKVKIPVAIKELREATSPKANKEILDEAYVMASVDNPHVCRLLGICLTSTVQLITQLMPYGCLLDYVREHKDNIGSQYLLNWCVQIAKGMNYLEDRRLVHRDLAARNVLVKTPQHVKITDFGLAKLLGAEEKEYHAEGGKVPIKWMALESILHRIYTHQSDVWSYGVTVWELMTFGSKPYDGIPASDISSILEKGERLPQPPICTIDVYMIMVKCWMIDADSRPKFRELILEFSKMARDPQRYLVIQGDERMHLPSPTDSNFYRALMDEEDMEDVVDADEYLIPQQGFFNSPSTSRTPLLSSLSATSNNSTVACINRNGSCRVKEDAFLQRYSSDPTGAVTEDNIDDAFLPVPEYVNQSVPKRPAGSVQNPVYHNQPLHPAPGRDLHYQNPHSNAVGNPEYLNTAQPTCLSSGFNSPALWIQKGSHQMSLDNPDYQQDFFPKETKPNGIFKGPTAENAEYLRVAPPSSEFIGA
Method: Effect of Vitamin K3 (menadione) on erlotinib-induced inhibition of EGFR phosphorylation in mouse skin. […] Mice were administrated P.O. daily 50 mg/kg of erlotinib; mouse skin was smeared with VK3 15 mM ethanol solution. After treatment, the mice were sacrificed and skin tissue was taken. 100 mg skin tissue was used for the preparation of tissue extracts. Equal amounts of skin tissue extracts (80 μg of protein) were subjected on a 7.5% SDS-PAGE. Total EGFR and p-EGFR were detected by immunoblot analysis.
Effect of VK3, Cream B and Cream VK on EGFR phosphorylation in mouse skin tissue. The mice were smeared with 30 mM or 100 mM VK3 (in ethanol), or with the same doses of Cream B or Cream VK. Following treatment, mice were sacrificed and skin tissues were taken for the preparation of tissue extracts. Equal amounts of tissue extracts (80 μg of protein) were subjected on a 7.5% of SDS-PAGE. Total EGFR and p-EGFR were detected by immunoblot analysis using polyclonal anti-EGFR and p-EGFR antibodies. Cream B is an over the counter product (Baby Cakes) containing Vitamin K3 according to its label; the concentration is not specified. Cream VK is a 5% Vitamin K cream available over the counter.
The effect of Vitamin K3 was examined in the skin of animals receiving the EGFR TK inhibitor erlotinib 100 mg/kg×10 days (days 1-10). […] The skin of mice was smeared with Vitamin K3 in ethanol (15 mM BID×5 days on days 5 to 10). The effect of Vitamin K3 was compared to that of two over-the-counter skin creams. Cream B (Baby Cakes) is an over-the-counter product containing Vitamin K3 according to its label; the concentration is not specified. Cream VK is a 5% Vitamin K cream available over-the-counter.

CC1=C(C/C=C(/C)CCC[C@H](C)CCC[C@H](C)CCCC(C)C)C(=O)c2ccccc2C1=O (single isomer, unassigned) [cis isomer]
biological activity [1]: little or no biological activity

CC1=C(C/C=C(\C)CCC[C@H](C)CCC[C@H](C)CCCC(C)C)C(=O)c2ccccc2C1=O [Vitamin K1, 2-methyl-3-phytyl-1,4-naphthoquinone]
concentration at which activation of EGFR was seen (EGFR [2]; A431 cells): 1000 µM | activation (phosphorylation) of EGFR (EGFR [2]; A431 cells): activated | concentration at which activation was seen, converted to mass concentration (EGFR [2]; A431 cells): about 450 μg/ml | concentration at which activation of Akt was seen (Akt): 1000 µM

CC(C)=CCC/C(C)=C/CC/C(C)=C/CC/C(C)=C/CC/C(C)=C/CC/C(C)=C/CC1=C(C)C(=O)c2ccccc2C1=O [Vitamin K2, 2-methyl-3-hexaprenyl-1,4-naphthoquinone]
activation (phosphorylation) of EGFR (EGFR [2]; A431 cells): little or no effect | activation (phosphorylation) of Akt (Akt): little or no effect | activation (phosphorylation) of Stat-3 (Stat-3; A431 cells, 2 hours exposure): little or no effect

CC1=CC(=O)c2ccccc2C1=O [Vitamin K3, 2-methyl-1,4-naphthoquinone]
reversibility of induced EGFR phosphorylation (EGFR [2]; A431 cells, 0.1 mM VK3 1 hour, then VK3-free medium): reversible | concentration at which activation of EGFR was seen (EGFR [2]; A431 cells): 100 µM | activation (phosphorylation) of EGFR (EGFR [2]; A431 cells): stimulated; also recorded: activated | concentration at which activation was seen, converted to mass concentration (EGFR [2]; A431 cells): about 17 μg/ml | activation of EGFR in the presence of erlotinib (EGFR [2]; A431 or HN5 cells, serum free medium, erlotinib 2 μM, Vitamin K3 0.01-0.5 mM, 2 hours): prevents the inhibition of EGFR phosphorylation; also recorded: activated | activation of EGFR in the presence of cetuximab (EGFR [2]; Vitamin K3 0.1 and 0.5 mM): activated | concentration at which activation of Akt was seen (Akt): 100 µM | activation (phosphorylation) of Akt (Akt): stimulated; also recorded: activated | activation of Akt in the presence of erlotinib (Akt; A431 or HN5 cells, erlotinib 2 μM, at 0.5 mM vitamin K3): activated | activation of Akt in the presence of cetuximab (Akt; Vitamin K3 0.1 and 0.5 mM): activated | concentration at which activation of Stat-3 was seen (Stat-3; A431 cells, 2 hours exposure): 100 µM | activation (phosphorylation) of Stat-3 (Stat-3; A431 cells, 2 hours exposure): stimulated; also recorded: activated | activation of Stat-3 in the presence of erlotinib (Stat-3; A431 or HN5 cells, erlotinib 2 μM, at 0.1 and 0.5 mM vitamin K3): activated | activation of Stat-3 in the presence of cetuximab (Stat-3; Vitamin K3 0.1 and 0.5 mM): activated | decrease of cytotoxicity of the EGFR inhibitor (erlotinib) ([3]; co-incubation with Vitamin K3 50-100 μM, 72 hours, cell counting): 4-6 fold | effect on phosphatase activity (phosphatase activity; A431 cells, 0.1 mM VK3 for 1 hour, pNPP substrate): inhibits phosphatase activity; also recorded: inhibiting phosphatase activity | time after removal at which phosphatase inhibition is reversed (phosphatase activity; A431 cells, reincubation in VK3-free medium): 2 to 3 h | reversibility of phosphatase inhibition (phosphatase activity; following removal of VK3): reversible | dermatitis on topical administration ([4]; Page et al., 1942): can cause dermatitis | vesiculation of the skin on topical administration ([4]; Ulbrich, 1961): vesiculation of the skin | p-EGFR in skin of mice receiving erlotinib (EGFR [5]; erlotinib P.O. daily, skin smeared with Vitamin K3 15 mM in ethanol BID x 5 days (days 5 to 10)): rescues; also recorded: significant p-EGFR expression | EGFR phosphorylation in mouse skin tissue (EGFR [5]; skin smeared with 30 mM or 100 mM (VK3 in ethanol) x 3 doses every 12 hours, same doses of creams): activates EGFR | activation of EGFR in normal mouse skin (EGFR [5]; topical application): activated

C#Cc1cccc(Nc2ncnc3cc(OCCOC)c(OCCOC)cc23)c1 [erlotinib]
effect of exposure on cells ([3]; A431 cells, erlotinib alone): cell death
